Results on two molecules are retold here after ChEMBL document CHEMBL1130496, “Synthesis of N-desmethyl PNQX: elaboration into an immunogenic conjugate and a radioiodinated ligand; radioimmunoassay for the AMPA/NMDA antagonist, PNQX” (Bioorg Med Chem Lett, 1997).

Test [1] addresses Glutamate receptor ionotropic, NMDA 2C (Rattus norvegicus) (UniProt Q00961). Description: Effective dose required for the action of NMDA receptor activity in maximal electroshock anticonvulsant assay. Type of test: functional. A general note: Protection in the maximal electroshock model is a classic sign of anticonvulsant action.
The target of test [2] is Glutamate receptor 4 (Homo sapiens) (UniProt P48058). Nature of the test: Effective dose required for the action of AMPA receptor antagonistic activity in maximal electroshock anticonvulsant assay. Type of test: functional.
Glutamate receptor 4 (Homo sapiens), sequence (P48058 whole entry): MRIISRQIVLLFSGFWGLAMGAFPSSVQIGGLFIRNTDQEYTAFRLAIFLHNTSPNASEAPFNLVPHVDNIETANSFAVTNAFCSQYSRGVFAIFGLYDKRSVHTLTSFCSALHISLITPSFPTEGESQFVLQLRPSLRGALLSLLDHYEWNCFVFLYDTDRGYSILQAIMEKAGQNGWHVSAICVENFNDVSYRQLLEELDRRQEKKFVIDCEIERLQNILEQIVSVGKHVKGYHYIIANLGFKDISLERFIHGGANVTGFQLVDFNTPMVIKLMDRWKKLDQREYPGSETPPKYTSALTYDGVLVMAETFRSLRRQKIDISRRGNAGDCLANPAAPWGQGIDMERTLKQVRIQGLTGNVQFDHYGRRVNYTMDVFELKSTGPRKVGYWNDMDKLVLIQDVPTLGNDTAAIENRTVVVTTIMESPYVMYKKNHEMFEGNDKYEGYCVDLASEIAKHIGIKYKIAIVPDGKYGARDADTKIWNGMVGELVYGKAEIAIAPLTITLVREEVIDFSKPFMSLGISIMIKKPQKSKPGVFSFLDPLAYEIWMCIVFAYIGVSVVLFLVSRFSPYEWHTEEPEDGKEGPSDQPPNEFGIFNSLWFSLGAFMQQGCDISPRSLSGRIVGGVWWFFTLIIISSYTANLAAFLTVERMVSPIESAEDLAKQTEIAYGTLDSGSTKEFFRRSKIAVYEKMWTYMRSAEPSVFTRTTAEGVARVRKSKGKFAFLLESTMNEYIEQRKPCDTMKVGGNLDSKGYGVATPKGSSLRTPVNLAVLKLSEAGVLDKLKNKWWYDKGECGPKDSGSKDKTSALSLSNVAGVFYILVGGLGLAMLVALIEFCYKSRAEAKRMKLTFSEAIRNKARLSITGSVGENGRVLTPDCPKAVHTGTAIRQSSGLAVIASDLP

Glutamate receptor ionotropic, NMDA 2C (Rattus norvegicus), sequence (Q00961 20-1237 limits assumed): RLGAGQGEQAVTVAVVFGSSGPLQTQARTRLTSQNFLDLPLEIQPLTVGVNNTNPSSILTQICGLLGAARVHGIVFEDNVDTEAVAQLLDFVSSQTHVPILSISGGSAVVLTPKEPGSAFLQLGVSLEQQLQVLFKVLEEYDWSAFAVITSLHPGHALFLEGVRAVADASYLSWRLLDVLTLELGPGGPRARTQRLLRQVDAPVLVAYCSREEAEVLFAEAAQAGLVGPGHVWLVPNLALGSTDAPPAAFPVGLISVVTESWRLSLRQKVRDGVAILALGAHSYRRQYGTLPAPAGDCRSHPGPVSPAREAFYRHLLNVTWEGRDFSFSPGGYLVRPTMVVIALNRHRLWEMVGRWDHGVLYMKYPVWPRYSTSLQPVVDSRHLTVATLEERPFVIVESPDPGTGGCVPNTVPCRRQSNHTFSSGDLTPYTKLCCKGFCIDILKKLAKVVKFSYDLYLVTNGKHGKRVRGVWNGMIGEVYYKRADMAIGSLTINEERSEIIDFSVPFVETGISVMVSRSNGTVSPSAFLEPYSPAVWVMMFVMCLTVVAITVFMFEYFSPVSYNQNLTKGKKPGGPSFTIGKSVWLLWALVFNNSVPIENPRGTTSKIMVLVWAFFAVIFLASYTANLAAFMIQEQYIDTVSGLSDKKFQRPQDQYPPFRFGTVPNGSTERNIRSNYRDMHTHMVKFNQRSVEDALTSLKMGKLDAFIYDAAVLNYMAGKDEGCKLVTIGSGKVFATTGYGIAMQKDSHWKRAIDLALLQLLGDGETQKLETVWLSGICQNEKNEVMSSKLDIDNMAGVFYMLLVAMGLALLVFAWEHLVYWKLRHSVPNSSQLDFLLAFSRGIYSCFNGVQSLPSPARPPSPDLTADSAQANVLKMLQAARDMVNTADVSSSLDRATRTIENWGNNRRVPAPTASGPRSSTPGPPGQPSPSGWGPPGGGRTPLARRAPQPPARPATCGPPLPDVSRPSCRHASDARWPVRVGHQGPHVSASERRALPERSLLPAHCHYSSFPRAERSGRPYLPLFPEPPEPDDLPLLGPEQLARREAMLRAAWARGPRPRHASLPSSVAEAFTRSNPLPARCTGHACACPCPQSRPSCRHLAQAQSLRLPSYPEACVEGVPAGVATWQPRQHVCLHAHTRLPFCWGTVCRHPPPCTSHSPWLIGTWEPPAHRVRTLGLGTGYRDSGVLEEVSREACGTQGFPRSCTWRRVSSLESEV

In turn, `NS(=O)(=O)c1cccc2c1c([N+](=O)[O-])cc1nc(O)c(O)nc12` returned a 50% effective dose (ED50) in test [1] of 13.1 mg/kg.

As to `CN1CCc2c([N+](=O)[O-])cc3nc(O)c(O)nc3c2C1`, it took a dose of 0.44 mg/kg to reach the 50% effect level in test [2] (ED50).

A word on the ED50: it is the dose at which the effect has come halfway, by size or by number of responders. A lower ED50 goes with greater potency.
